Source: patent publication US6737383B1, “Herbicidal oxadiazolidines” (priority 1999, dated 2004)

Columns and labels:
smallflower flatsedge = assay: Test B flood test smallflower flatsedge; type: in vivo, Cyperus difformis
Summary of the method: (§1)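 Read-out is a visual response score from 0 (no effect) to 10 (complete control), assigned by comparison with untreated controls. Treatment was applied at the 2-leaf stage, and plants stayed in the greenhouse for twelve to sixteen days before scoring.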

pigweed = assay: Test B pre/postemergence pigweed; type: in vivo, Amaranthus retroflexus; settings: for Plant response rating, Redroot pigweed: scale of 0 to 10 where 0 is no effect and 10 is complete control
Summary of the method: (§2)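 Test chemicals in a non-phytotoxic solvent mixture with surfactant were sprayed preemergence onto planted seeds and postemergence onto plants 2 to 18 cm tall (1- to 4-leaf stage). After twelve to sixteen days in a greenhouse, injury was visually rated against untreated controls from 0 (no effect) to 10 (complete control).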

rice = assay: Test B flood test rice; type: in vivo, Oryza sativa
Summary of the method: as §1

bamyardgrass = assay: Test B flood test barnyardgrass; type: in vivo, Echinochloa crus-galli
Summary of the method: as §1

bedstraw = assay: Test B pre/postemergence bedstraw; type: in vivo, Galium aparine
Summary of the method: as §2

soybean = assay: Test B pre/postemergence soybean; type: in vivo, Glycine max; settings: for Plant response rating, Soybean: scale of 0 to 10 where 0 is no effect and 10 is complete control
Summary of the method: as §2

cocklebur = assay: Test B pre/postemergence cocklebur; type: in vivo, Xanthium strumarium
Summary of the method: as §2

blackgrass = assay: Test B pre/postemergence blackgrass; type: in vivo, Alopecurus myosuroides
Summary of the method: as §2

corn = assay: Test B pre/postemergence corn; type: in vivo, Zea mays
Summary of the method: as §2

morningglory = assay: Test B pre/postemergence morningglory; type: in vivo, Ipomoea hederacea; settings: for Plant response rating, Morningglory: scale of 0 to 10 where 0 is no effect and 10 is complete control
Summary of the method: as §2

velvetleaf = assay: Test B pre/postemergence velvetleaf; type: in vivo, Abutilon theophrasti; settings: for Plant response rating, Velvetleaf: scale of 0 to 10 where 0 is no effect and 10 is complete control
Summary of the method: as §2

crabgrass = assay: Test B pre/postemergence crabgrass; type: in vivo, Digitaria sanguinalis
Summary of the method: as §2

giant foxtail = assay: Test B pre/postemergence giant foxtail; type: in vivo, Setaria faberii
Summary of the method: as §2

wheat = assay: Test B pre/postemergence wheat; type: in vivo, Triticum aestivum; settings: for Plant response rating, Wheat: scale of 0 to 10 where 0 is no effect and 10 is complete control
Summary of the method: as §2

wild oat = assay: Test B pre/postemergence wild oat; type: in vivo, Avena fatua; settings: for Plant response rating, Wild oats: scale of 0 to 10 where 0 is no effect and 10 is complete control
Summary of the method: as §2

surinam grass = assay: Test B pre/postemergence surinam grass; type: in vivo, Brachiaria decumbens
Summary of the method: as §2

[1] = Rate 62 g/ha, flood test species, Pre-emergence, visual evaluation after twelve to sixteen days
[2] = Rate 125 g/ha, under heading Pre-emergence, flood test species, visual evaluation after twelve to sixteen days
[3] = Rate 250 g/ha, Pre-emergence (flood test species), scale 0 to 10, 0 is no effect, 10 is complete control
[4] = Rate 500 g/ha, Pre-emergence, flood test species, scale 0 to 10 (0 no effect, 10 complete control)
[5] = Postemergence, Rate 250 g/ha, scale 0 to 10
[6] = Preemergence, Rate 250 g/ha, scale 0 to 10, 0 is no effect, 10 is complete control
[7] = Preemergence, Rate 500 g/ha, scale 0 to 10, 0 is no effect, 10 is complete control
[8] = Rate 62 g/ha, Postemergence, scale 0 to 10 (0 no effect, 10 complete control)
[9] = Rate 125 g/ha, Postemergence, scale 0 to 10, 0 is no effect, 10 is complete control
[10] = Preemergence, Rate 125 g/ha, scale of 0 to 10 where 0 is no effect and 10 is complete control
[11] = Postemergence, Rate 500 g/ha, scale of 0 to 10 where 0 is no effect and 10 is complete control
[12] = Preemergence, Rate 62 g/ha, scale of 0 to 10 where 0 is no effect and 10 is complete control

## CC(C)N(C(=O)n1oc(=O)n(CC2=NOCC2)c1=O)c1ccc(F)cc1 [Compound 466]
Smallflower flatsedge; [1]
  Plant response rating, S. Flatsedge (0 to 10 scale, 0 is no effect, 10 is complete control): 0
Smallflower flatsedge; [2]
  S. Flatsedge plant response rating (0 to 10 scale, 0 is no effect, 10 is complete control): 0
Smallflower flatsedge; [3]
  S. Flatsedge plant response rating: 0
Smallflower flatsedge; [4]
  S. Flatsedge plant response rating: 0
pigweed; [5]
  Redroot pigweed plant response rating: 3
pigweed; Preemergence, Rate 62 g/ha
  Plant response rating, Redroot pigweed: 1
pigweed; Preemergence, Rate 125 g/ha
  Plant response rating, Redroot pigweed: 7
pigweed; [6]
  Redroot pigweed plant response rating: 9
pigweed; [7]
  Redroot pigweed plant response rating: 10
pigweed; [8]
  Redroot pigweed plant response rating: 2
pigweed; [9]
  Redroot pigweed plant response rating: 2
rice; [1]
  Plant response rating, Rice (0 to 10 scale, 0 is no effect, 10 is complete control): 0
rice; [2]
  Rice plant response rating (0 to 10 scale, 0 is no effect, 10 is complete control): 0
rice; [3]
  Rice plant response rating: 0
rice; [4]
  Rice plant response rating: 0
bamyardgrass; [1]
  Plant response rating, Barnyardgrass (0 to 10 scale, 0 is no effect, 10 is complete control): 0
bamyardgrass; [2]
  Barnyardgrass plant response rating (0 to 10 scale, 0 is no effect, 10 is complete control): 0
bamyardgrass; [3]
  Barnyardgrass plant response rating: 0
bamyardgrass; [4]
  Barnyardgrass plant response rating: 0
bedstraw; [5]
  Bedstraw plant response rating: 4
bedstraw; [10]
  Plant response rating, Bedstraw: 2
bedstraw; [7]
  Bedstraw plant response rating: 2
bedstraw; [8]
  Bedstraw plant response rating: 4
soybean; [5]
  Soybean plant response rating: 4
soybean; Preemergence, Rate 62 g/ha
  Plant response rating, Soybean: 0
soybean; Preemergence, Rate 125 g/ha
  Plant response rating, Soybean: 2
soybean; [6]
  Soybean plant response rating: 2
soybean; [7]
  Soybean plant response rating: 4
soybean; [8]
  Soybean plant response rating: 4
soybean; [9]
  Soybean plant response rating: 4
cocklebur; [5]
  Cocklebur plant response rating: 0
cocklebur; [11]
  Cocklebur plant response rating: 1
cocklebur; [12]
  Plant response rating, Cocklebur: 0
cocklebur; [10]
  Plant response rating, Cocklebur: 0
cocklebur; [6]
  Cocklebur plant response rating: 0
cocklebur; [7]
  Cocklebur plant response rating: 0
cocklebur; [8]
  Cocklebur plant response rating: 0
cocklebur; [9]
  Cocklebur plant response rating: 0
blackgrass; [5]
  Blackgrass plant response rating: 8
blackgrass; [11]
  Blackgrass plant response rating: 9
blackgrass; [12]
  Plant response rating, Blackgrass: 2
blackgrass; [10]
  Plant response rating, Blackgrass: 5
blackgrass; [6]
  Blackgrass plant response rating: 7
blackgrass; [7]
  Blackgrass plant response rating: 8
blackgrass; [8]
  Blackgrass plant response rating: 8
corn; [5]
  Corn plant response rating: 0
corn; [11]
  Corn plant response rating: 2
corn; [12]
  Plant response rating, Corn: 0
corn; [10]
  Plant response rating, Corn: 0
corn; [6]
  Corn plant response rating: 0
corn; [7]
  Corn plant response rating: 4
corn; [8]
  Corn plant response rating: 0
corn; [9]
  Corn plant response rating: 0
morningglory; [5]
  Morningglory plant response rating: 2
morningglory; Preemergence, Rate 62 g/ha
  Plant response rating, Morningglory: 0
morningglory; Preemergence, Rate 125 g/ha
  Plant response rating, Morningglory: 0
morningglory; [6]
  Morningglory plant response rating: 0
morningglory; [7]
  Morningglory plant response rating: 0
morningglory; [8]
  Morningglory plant response rating: 0
morningglory; [9]
  Morningglory plant response rating: 2
velvetleaf; [5]
  Velvetleaf plant response rating: 0
velvetleaf; Preemergence, Rate 62 g/ha
  Plant response rating, Velvetleaf: 0
velvetleaf; Preemergence, Rate 125 g/ha
  Plant response rating, Velvetleaf: 0
velvetleaf; [6]
  Velvetleaf plant response rating: 4
velvetleaf; [7]
  Velvetleaf plant response rating: 4
velvetleaf; [8]
  Velvetleaf plant response rating: 0
velvetleaf; [9]
  Velvetleaf plant response rating: 0
crabgrass; [5]
  Crabgrass plant response rating: 9
crabgrass; [11]
  Crabgrass plant response rating: 9
crabgrass; [12]
  Plant response rating, Crabgrass: 6
crabgrass; [10]
  Plant response rating, Crabgrass: 9
crabgrass; [6]
  Crabgrass plant response rating: 10
crabgrass; [7]
  Crabgrass plant response rating: 10
crabgrass; [8]
  Crabgrass plant response rating: 9
crabgrass; [9]
  Crabgrass plant response rating: 9
Giant foxtail; [5]
  Giant foxtail plant response rating: 9
Giant foxtail; [11]
  Giant foxtail plant response rating: 9
Giant foxtail; [12]
  Plant response rating, Giant foxtail: 9
Giant foxtail; [10]
  Plant response rating, Giant foxtail: 10
Giant foxtail; [6]
  Giant foxtail plant response rating: 10
Giant foxtail; [7]
  Giant foxtail plant response rating: 10
Giant foxtail; [8]
  Giant foxtail plant response rating: 9
wheat; [5]
  Wheat plant response rating: 0
wheat; Preemergence, Rate 62 g/ha
  Plant response rating, Wheat: 0
wheat; Preemergence, Rate 125 g/ha
  Plant response rating, Wheat: 0
wheat; [6]
  Wheat plant response rating: 0
wheat; [7]
  Wheat plant response rating: 1
wheat; [8]
  Wheat plant response rating: 0
wheat; [9]
  Wheat plant response rating: 0
Wild oat; [5]
  Wild oats plant response rating: 0
Wild oat; Preemergence, Rate 62 g/ha
  Plant response rating, Wild oats: 0
Wild oat; Preemergence, Rate 125 g/ha
  Plant response rating, Wild oats: 0
Wild oat; [6]
  Wild oats plant response rating: 3
Wild oat; [7]
  Wild oats plant response rating: 7
Wild oat; [8]
  Wild oats plant response rating: 0
Wild oat; [9]
  Wild oats plant response rating: 0
Surinam grass; Postemergence, Rate 250 g/ha, scale 0 to 10, 0 no effect, 10 complete control
  B. signalgrass plant response rating: 3
Surinam grass; [11]
  B. signalgrass plant response rating: 7
Surinam grass; [12]
  Plant response rating, B. signalgrass: 0
Surinam grass; [10]
  Plant response rating, B. signalgrass: 3
Surinam grass; [6]
  B. signalgrass plant response rating: 6
Surinam grass; [7]
  B. signalgrass plant response rating: 9
Surinam grass; [8]
  B. signalgrass plant response rating: 2
Surinam grass; [9]
  B. signalgrass plant response rating: 2
